# Records with an inconclusive call do not appear.
# Tested on: BDF1 mice, M5076 sarcoma s.c., survival/tumor T/C
# Assay: NCI In Vivo Anticancer Drug Screen. Data for tumor model Sarcoma M5076 (subcutaneous) in B6D2F1 (BDF1) mice
# Protocol: The antitumor activity of compounds was measured in mice bearing transplantable tumors. Survival or tumor size were measured and the results are expressed as the measurement made in the treated group (T) divided by the measurement made in the vehicle treated control group (C). The tumor model used in this assay is Sarcoma M5076 (subcutaneous) in B6D2F1 (BDF1) mice
structure (smiles),measurement,setting,value
NC1=NC(O)C=C1 (stereo unspecified),T/C,"endpoint: median survival time, dose: 5.0 mg/kg/injection, schedule: Q01DX009 (ip), vehicle: saline, higher = longer survival",103 % of control
same,T/C,"endpoint: median survival time, dose: 10.0 mg/kg/injection, schedule: Q01DX009 (ip), vehicle: saline, higher = longer survival",96 % of control
same,T/C,"endpoint: median survival time, dose: 20.0 mg/kg/injection, schedule: Q01DX009 (ip), vehicle: saline, higher = longer survival",94 % of control
same,T/C,"endpoint: median survival time, dose: 40.0 mg/kg/injection, schedule: Q01DX009 (ip), vehicle: saline, higher = longer survival",96 % of control
same,T/C,"endpoint: median survival time, dose: 80.0 mg/kg/injection, schedule: Q01DX009 (ip), vehicle: saline, higher = longer survival",103 % of control
same,T/C,"endpoint: median tumor weight (est.), dose: 5.0 mg/kg/injection, schedule: Q01DX009 (ip), vehicle: saline, higher = larger tumour",115 % of control
same,T/C,"endpoint: median tumor weight (est.), dose: 10.0 mg/kg/injection, schedule: Q01DX009 (ip), vehicle: saline, higher = larger tumour",63 % of control
same,T/C,"endpoint: median tumor weight (est.), dose: 20.0 mg/kg/injection, schedule: Q01DX009 (ip), vehicle: saline, higher = larger tumour",169 % of control
same,T/C,"endpoint: median tumor weight (est.), dose: 40.0 mg/kg/injection, schedule: Q01DX009 (ip), vehicle: saline, higher = larger tumour",96 % of control
same,T/C,"endpoint: median tumor weight (est.), dose: 80.0 mg/kg/injection, schedule: Q01DX009 (ip), vehicle: saline, higher = larger tumour",68 % of control
COc1ccc(Cl)[n+]([O-])n1,T/C,"endpoint: median survival time, dose: 50.0 mg/kg/injection, schedule: Q04DX003 (ip), vehicle: Klucel (hydroxypropylcellulose) (HPC), higher = longer survival",100 % of control
same,T/C,"endpoint: median survival time, dose: 100.0 mg/kg/injection, schedule: Q04DX003 (ip), vehicle: Klucel (hydroxypropylcellulose) (HPC), higher = longer survival",100 % of control
C1CCC2OCCOCCOCCOCCOC2C1 (stereo unspecified),T/C,"endpoint: median survival time, dose: 50.0 mg/kg/injection, schedule: Q01DX009 (ip), vehicle: saline, higher = longer survival",111 % of control
same,T/C,"endpoint: median survival time, dose: 100.0 mg/kg/injection, schedule: Q01DX009 (ip), vehicle: saline, higher = longer survival",113 % of control
same,T/C,"endpoint: median tumor weight (est.), dose: 50.0 mg/kg/injection, schedule: Q01DX009 (ip), vehicle: saline, higher = larger tumour",66 % of control
same,T/C,"endpoint: median tumor weight (est.), dose: 100.0 mg/kg/injection, schedule: Q01DX009 (ip), vehicle: saline, higher = larger tumour",75 % of control
Nc1nc(SCC(=O)O)[nH]c(=O)c1N,T/C,"endpoint: median survival time, dose: 50.0 mg/kg/injection, schedule: Q01DX009 (ip), vehicle: saline with Tween-80, higher = longer survival",93 % of control
same,T/C,"endpoint: median survival time, dose: 100.0 mg/kg/injection, schedule: Q01DX009 (ip), vehicle: saline with Tween-80, higher = longer survival",105 % of control
same,T/C,"endpoint: median survival time, dose: 200.0 mg/kg/injection, schedule: Q01DX009 (ip), vehicle: saline with Tween-80, higher = longer survival",110 % of control
Nc1nc(N)c2c(ccc3nccc32)[nH]1,T/C,"endpoint: median survival time, dose: 12.5 mg/kg/injection, schedule: Q01DX009 (ip), vehicle: saline with Tween-80, higher = longer survival",86 % of control
same,T/C,"endpoint: median survival time, dose: 25.0 mg/kg/injection, schedule: Q01DX009 (ip), vehicle: saline with Tween-80, higher = longer survival",92 % of control
same,T/C,"endpoint: median tumor weight (est.), dose: 12.5 mg/kg/injection, schedule: Q01DX009 (ip), vehicle: saline with Tween-80, higher = larger tumour",80 % of control
same,T/C,"endpoint: median tumor weight (est.), dose: 25.0 mg/kg/injection, schedule: Q01DX009 (ip), vehicle: saline with Tween-80, higher = larger tumour",62 % of control
CC(C)[C@](O)(C(=O)OCC1=CC[N+]2([O-])CC[C@@H](O)[C@@H]12)[C@H](C)O (stereo partly specified),T/C,"endpoint: mean tumor weight, dose: 75.0 mg/kg/injection, schedule: Q02DX011 (ip), vehicle: saline, higher = larger tumour",96 % of control
same,T/C,"endpoint: mean tumor weight, dose: 100.0 mg/kg/injection, schedule: Q02DX011 (ip), vehicle: saline, higher = larger tumour",53 % of control
same,T/C,"endpoint: mean tumor weight, dose: 150.0 mg/kg/injection, schedule: Q02DX011 (ip), vehicle: saline, higher = larger tumour",82 % of control
same,T/C,"endpoint: mean tumor weight, dose: 200.0 mg/kg/injection, schedule: Q02DX011 (ip), vehicle: saline, higher = larger tumour",37 % of control
same,T/C,"endpoint: mean tumor weight, dose: 300.0 mg/kg/injection, schedule: Q02DX011 (ip), vehicle: saline, higher = larger tumour",6 % of control
same,T/C,"endpoint: mean tumor weight, dose: 400.0 mg/kg/injection, schedule: Q02DX011 (ip), vehicle: saline, higher = larger tumour",13 % of control
same,T/C,"endpoint: median survival time, dose: 200.0 mg/kg/injection, schedule: Q01DX007 (ip), vehicle: saline, higher = longer survival",95 % of control
same,T/C,"endpoint: median survival time, dose: 400.0 mg/kg/injection, schedule: Q01DX007 (ip), vehicle: saline, higher = longer survival",117 % of control
same,T/C,"endpoint: median survival time, dose: 540.0 mg/kg/injection, schedule: Q04DX003 (ip), vehicle: saline, higher = longer survival",104 % of control
same,T/C,"endpoint: median survival time, dose: 800.0 mg/kg/injection, schedule: Q01DX007 (ip), vehicle: saline, higher = longer survival",110 % of control
same,T/C,"endpoint: median survival time, dose: 800.0 mg/kg/injection, schedule: Q04DX003 (ip), vehicle: saline, higher = longer survival",112 % of control
same,T/C,"endpoint: median survival time, dose: 1200.0 mg/kg/injection, schedule: Q04DX003 (ip), vehicle: saline, higher = longer survival",114 % of control
same,T/C,"endpoint: median tumor weight (est.), dose: 75.0 mg/kg/injection, schedule: Q02DX011 (ip), vehicle: saline, higher = larger tumour",89 % of control
same,T/C,"endpoint: median tumor weight (est.), dose: 100.0 mg/kg/injection, schedule: Q02DX011 (ip), vehicle: saline, higher = larger tumour",56 % of control
same,T/C,"endpoint: median tumor weight (est.), dose: 150.0 mg/kg/injection, schedule: Q02DX011 (ip), vehicle: saline, higher = larger tumour",82 % of control
same,T/C,"endpoint: median tumor weight (est.), dose: 200.0 mg/kg/injection, schedule: Q02DX011 (ip), vehicle: saline, higher = larger tumour",39 % of control
same,T/C,"endpoint: median tumor weight (est.), dose: 300.0 mg/kg/injection, schedule: Q02DX011 (ip), vehicle: saline, higher = larger tumour",3 % of control
same,T/C,"endpoint: median tumor weight (est.), dose: 400.0 mg/kg/injection, schedule: Q02DX011 (ip), vehicle: saline, higher = larger tumour",14 % of control

# From PubChem BioAssay AID288 (DTP/NCI, 2004)
